Experimental findings from patent publication US7511145B2 (Genelabs Technologies, Inc., priority 2003, dated 2009) are described below.

In this assay the target is T1, HCV-NS5b (Hepatitis C virus genotype 1b, UniProt Q9WMX2).
T1 construct: (His)6 (C); made in house; host or cells: XL-1 cells (E. coli), IPTG-inducible plasmid, nickel-NTA purification
Briefly: HCV-NS5b enzyme assay (incorporation of radiolabeled UTP). The format is biochemical. To be noted: for inhibition at 33 µM: enzyme inhibition at compound concentration of 33 uM; for inhibition at 100 µM: read-out: % inh@100, enzyme inhibition at compound concentration of 100 uM. The source says:
The coding sequence of NS5b protein was cloned by PCR from pFKI389luc/NS3-3′/ET as described by Lohmann, V., et al. (1999) Science 285, 110-113 using the following primers: […]
The cloned fragment was missing the C terminus 21 amino acid residues. The cloned fragment was inserted into an IPTG-inducible expression plasmid that provided an epitope tag (His)6 at the carboxy terminus of the protein.
The recombinant enzyme was expressed in XL-1 cells and after induction of expression, the protein was purified using affinity chromatography on a nickel-NTA column. Storage condition was 10 mM Tris-HCl pH 7.5, 50 mM NaCl, 0.1 mM EDTA, 1 mM DTT, 20% glycerol at −20° C.
The polymerase activity was assayed by measuring incorporation of radiolabeled UTP into a RNA product using a biotinylated, heteropolymeric template, which included a portion of the HCV genome. Typically, the assay mixture (50 μL) contained 10 mM Tris-HCl (pH 7.5), 5 mM MgCl2, 0.2 mM EDTA, 10 mM KCl, 1 unit/μL RNAsin, 1 mM DTT, 10 μM each of NTP, including [^3H]-UTP, and 10 ng/μL heteropolymeric template. Test compounds were initially dissolved in 100% DMSO and further diluted in aqueous buffer containing 5% DMSO. Typically, compounds were tested at concentrations between 1 nM and 100 μM. Reactions were started with addition of enzyme and allowed to continue at 37° C. for 2 hours. Reactions were quenched with 8 μL of 100 mM EDTA and reaction mixtures (30 μL) were transferred to streptavidin-coated scintillation proximity microtiter plates (FlashPlates) and incubated at 4° C. overnight. Incorporation of radioactivity was determined by scintillation counting.
Shown in Table IX below are the values for enzyme inhibition measured at compound concentrations of 100 and 33 uM, (% inh@[…] and % inh@33, respectively). The percent inhibition values are calculated from the differential incorporation of radioactivity compared to a control reaction without compound: % inhibition=100−[(CountsINH−CountsBKG)/CountsCTRL−CountsBKG)×100 where CountsINH is the signal of the testwell with inhibitor, CountsBKG is the background signal and CountsCTRL is the signal of a testwell without inhibitor.

For `O=C(O)c1ccc2c(c1)nc(-c1ccc3nc(-c4cc(Br)ccc4O)ccc3c1)n2C1CCCCC1` [Compound 354, 2-[2-(5-Bromo-2-hydroxy-phenyl)-quinolin-6-yl]-1-cyclohexyl-1H-benzoimidazole-5-carboxylic acid], the inhibition at 33 µM stood at 98% and the inhibition at 100 µM came out at 101%.

For `O=C(O)c1ccc2c(c1)nc(-c1ccc3nc(-c4cccnc4)ccc3c1)n2C1CCCCC1` [Compound 355, 1-cyclohexyl-2-(2-pyridin-3-yl-quinolin-6-yl)-1H-benzoimidazole-5-carboxylic acid], the inhibition at 33 µM came out at 72.3% and the inhibition at 100 µM stood at 89.3%.

Consider `COc1ccc(-c2ccc(Cl)cc2)c(-c2ccc3cc(-c4nc5cc(C(=O)O)ccc5n4C4CCCCC4)ccc3n2)c1` [Compound 356, 2-[2-(4′-Chloro-4-methoxy-biphen-2-yl)-quinolin-6-yl]-1-cyclohexyl-1H-benzoimidazole-5-carboxylic acid], for which the inhibition at 33 µM stood at 101% and the inhibition at 100 µM amounted to 100%.

For `O=C(O)c1ccc2c(c1)nc(-c1ccc3nc(-c4cccc5ccccc45)ccc3c1)n2C1CCCCC1` [Compound 357, 1-cyclohexyl-2-(2-naphthalen-1-yl-quinolin-6-yl)-1H-benzoimidazole-5-carboxylic acid], the inhibition at 33 µM worked out at 98.8% and the inhibition at 100 µM was found to be 101%.

Take `Nc1ccc(-c2ccc3cc(-c4nc5cc(C(=O)O)ccc5n4C4CCCCC4)ccc3n2)cc1` [Compound 358, 2-[2-(4-amino-phenyl)-quinolin-6-yl]-1-cyclohexyl-1H-benzoimidazole-5-carboxylic acid]: the inhibition at 33 µM was 85.1% and the inhibition at 100 µM stood at 95.3%.

`O=C(O)COc1cccc(-c2ccc3cc(-c4nc5cc(C(=O)O)ccc5n4C4CCCCC4)ccc3n2)c1` [Compound 359, 2-[2-(3-Carboxymethoxy-phenyl)-quinolin-6-yl]-1-cyclohexyl-1H-benzoimidazole-5-carboxylic acid]: the inhibition at 33 µM amounted to 97.3% and the inhibition at 100 µM worked out at 99.6%.

`O=C(O)c1ccc2c(c1)nc(-c1ccc3nc(-c4cc(OCC(=O)N5CCCC5)ccc4-c4ccccc4)ccc3c1)n2C1CCCCC1` [Compound 360, 1-cyclohexyl-2-{2-[4-(2-oxo-2-pyrrolidin-1-yl-ethoxy)-biphen-2-yl]-quinolin-6-yl}-1H-benzoimidazole-5-carboxylic acid]: the inhibition at 33 µM turned out to be 97.6% and the inhibition at 100 µM amounted to 97.9%.

With `NC(=O)CNC(=O)c1ccc(-c2ccc(Cl)cc2)c(-c2ccc3cc(-c4nc5cc(C(=O)O)ccc5n4C4CCCCC4)ccc3n2)c1` [Compound 361, 2-{2-[4-(Carbamoylmethyl-carbamoyl)-4′-chloro-biphen-2-yl]-quinolin-6-yl}-1-cyclohexyl-1H-benzoimidazole-5-carboxylic acid], the inhibition at 33 µM amounted to 100% and the inhibition at 100 µM is 98.7%.

Consider `CNC(=O)c1ccc(-c2ccccc2)c(-c2ccc3cc(-c4nc5cc(C(=O)O)ccc5n4C4CCCCC4)ccc3n2)c1` [Compound 362, 1-cyclohexyl-2-[2-(4-methylcarbamoyl-biphen-2-yl)-quinolin-6-yl]-1H-benzoimidazole-5-carboxylic acid], for which the inhibition at 33 µM amounted to 101% and the inhibition at 100 µM was 98.4%.

As to `Nc1c(Cl)cc(-c2ccc3cc(-c4nc5cc(C(=O)O)ccc5n4C4CCCCC4)ccc3n2)cc1Cl` [Compound 363, 2-[2-(4-amino-3,5-dichloro-phenyl)-quinolin-6-yl]-1-cyclohexyl-1H-benzoimidazole-5-carboxylic acid], the inhibition at 33 µM came to 98.4% and the inhibition at 100 µM is 101%.

As for `O=C(O)c1ccc2c(c1)nc(-c1ccc3nc(-c4ccc(O)cc4O)ccc3c1)n2C1CCCCC1` [Compound 364, 1-cyclohexyl-2-[2-(2,4-dihydroxy-phenyl)-quinolin-6-yl]-1H-benzoimidazole-5-carboxylic acid], the inhibition at 33 µM turned out to be 98.6% and the inhibition at 100 µM stood at 101%.

`COc1ccc(-c2ccc(C#N)cc2)c(-c2ccc3cc(-c4nc5cc(C(=O)O)ccc5n4C4CCCCC4)ccc3n2)c1` [Compound 365, 2-[2-(4′-cyano-4-methoxy-biphen-2-yl)-quinolin-6-yl]-1-cyclohexyl-1H-benzoimidazole-5-carboxylic acid]: the inhibition at 33 µM worked out at 102% and the inhibition at 100 µM was 103%.

Turning to `COc1ccc(-c2ccc(F)c(Cl)c2)c(-c2ccc3cc(-c4nc5cc(C(=O)O)ccc5n4C4CCCCC4)ccc3n2)c1` [Compound 366, 2-[2-(3′-chloro-4′-fluoro-4-methoxy-biphen-2-yl)-quinolin-6-yl]-1-cyclohexyl-1H-benzoimidazole-5-carboxylic acid], the inhibition at 33 µM amounted to 97.6% and the inhibition at 100 µM came out at 99.4%.

As to `COc1ccc(-c2cccc(C)c2)c(-c2ccc3cc(-c4nc5cc(C(=O)O)ccc5n4C4CCCCC4)ccc3n2)c1` [Compound 367, 1-cyclohexyl-2-[2-(4-methoxy-3′-methyl-biphen-2-yl)-quinolin-6-yl]-1H-benzoimidazole-5-carboxylic acid], the inhibition at 33 µM came out at 103% and the inhibition at 100 µM worked out at 101%.

Regarding `NC(=O)[C@H](Cc1cnc[nH]1)NC(=O)c1ccc2cc(-c3nc4cc(C(=O)O)ccc4n3C3CCCCC3)ccc2n1` [Compound 368], the inhibition at 33 µM worked out at 51.2% and the inhibition at 100 µM was 79.5%.

On to `O=C(O)c1ccc2c(c1)nc(-c1ccc3nc(-c4ccccc4-c4ccncc4)ccc3c1)n2C1CCCCC1` [Compound 369, 1-Cyclohexyl-2-[2-(2-pyrid-4-yl-phenyl)-quinolin-6-yl]-1H-benzoimidazole-5-carboxylic acid], for which the inhibition at 33 µM turned out to be 96.2% and the inhibition at 100 µM was 98.8%.

For `O=C(O)c1ccc2c(c1)nc(-c1ccc3nc(-c4cccc(C(=O)N5CCCC5)c4)ccc3c1)n2C1CCCCC1` [Compound 370, 1-Cyclohexyl-2-{2-[3-(pyrrolidine-1-carbonyl)-phenyl]-quinolin-6-yl}-1H-benzoimidazole-5-carboxylic acid], the inhibition at 33 µM was determined as 97.8% and the inhibition at 100 µM is 99.7%.

Turning to `Nc1ccc(-c2ccc3cc(-c4nc5cc(C(=O)O)ccc5n4C4CCCCC4)ccc3n2)cc1Br` [Compound 372, 2-[2-(4-amino-3-bromo-phenyl)-quinolin-6-yl]-1-cyclohexyl-1H-benzoimidazole-5-carboxylic acid], the inhibition at 33 µM was found to be 98.1% and the inhibition at 100 µM was found to be 98.2%.

For the compound `O=C(O)c1ccc2c(c1)nc(-c1ccc3[nH]c(-c4ccccc4)cc(=O)c3c1)n2C1CCCCC1` [Compound 373, 1-cyclohexyl-2-(4-oxo-2-phenyl-1,4-dihydro-quinolin-6-yl)-1H-benzoimidazole-5-carboxylic acid], the inhibition at 33 µM was found to be 39.9% and the inhibition at 100 µM was determined as 83.8%.

As to `NC(=O)c1cc(-c2ccc3cc(-c4nc5cc(C(=O)O)ccc5n4C4CCCCC4)ccc3n2)ccc1O` [Compound 374, 2-[2-(3-carbamoyl-4-hydroxy-phenyl)-quinolin-6-yl]-1-cyclohexyl-1H-benzoimidazole-5-carboxylic acid], the inhibition at 33 µM came out at 97.6% and the inhibition at 100 µM came to 98.3%.

As to `O=C(O)c1ccc2c(c1)nc(-c1ccc3nc(-c4cc(OCC(=O)N5CCCC5)ccc4-c4ccc(Cl)cc4)ccc3c1)n2C1CCCCC1` [Compound 376, 2-{2-[4′-Chloro-4-(2-oxo-2-pyrrolidin-1-yl-ethoxy)-biphen-2-yl]-quinolin-6-yl}-1-cyclohexyl-1H-benzoimidazole-5-carboxylic acid], the inhibition at 33 µM was determined as 97.4% and the inhibition at 100 µM is 97.2%.

As for `NC(=O)CNC(=O)c1ccc(-c2ccccc2)c(-c2ccc3cc(-c4nc5cc(C(=O)O)ccc5n4C4CCCCC4)ccc3n2)c1` [Compound 377, 2-{2-[4-(Carbamoylmethyl-carbamoyl)-biphen-2-yl]-quinolin-6-yl}-1-cyclohexyl-1H-benzoimidazole-5-carboxylic acid], the inhibition at 33 µM is 99.2% and the inhibition at 100 µM came out at 99.4%.

`CNC(=O)c1ccc(-c2ccc(Cl)cc2)c(-c2ccc3cc(-c4nc5cc(C(=O)O)ccc5n4C4CCCCC4)ccc3n2)c1` [Compound 378, 2-[2-(4′-chloro-4-methylcarbamoyl-biphen-2-yl)-quinolin-6-yl]-1-cyclohexyl-1H-benzoimidazole-5-carboxylic acid]: the inhibition at 33 µM turned out to be 100% and the inhibition at 100 µM is 101%.
